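Each compound was tested at five concentrations against cells in 96-well plates for 48 hours. TGI: total growth inhibition.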

The subject of one experiment is EKVX NSCLC. As to the kind of experiment: NCI anticancer screen, dose series, 48 h.
The compound `Nc1ccn(C2CC(O)C(COP(O)(=S)OC3CC(n4ccc(N)nc4=O)OC3CO)O2)c(=O)n1` (stereo not drawn) had a TGI of more than 100 µM.

In the case of `COC(=O)N1C[C@@]2(C=CC3(CC2)OCCO3)c2ccccc21`, the TGI is more than 100 µM.

`COc1ccccc1C1CC(=O)CC(c2ccccc2OC)C12C(=O)NC(=S)NC2=O` (stereo not drawn) showed a TGI of more than 100 µM.

`COc1cc(S(=O)(=O)Nc2ccc(-c3csc(N4C(=O)CSC4c4cccs4)n3)cc2)ccc1Cl` (stereo not drawn) registered a TGI of more than 100 µM.

The compound `NCCCCNCCCN1CC1` showed a TGI of 18.3 µM.

`O=c1n(/N=C/c2ccccc2)c(=O)n2n1C1C=CC2CC1` gave a TGI of more than 100 µM.

The compound `COc1ccc(C2c3cc4c(cc3C(O)C3CCC(=O)N23)OCO4)cc1` (stereo not drawn) came in with a TGI of more than 100 µM.

`COc1cc2c(cc1OC)-c1[nH]c3ccc(C#N)cc3c1CC(=O)N2` had a TGI of more than 100 µM.

`NCCCNCCCNCCCN`: the TGI is more than 100 µM.

`CCOC(=O)/C(N=Nc1ccc(-n2c(C)nc3ccccc3c2=O)cc1)=C(/C)O` yielded a TGI of more than 100 µM.

With `CCc1nnc(CC)n1NCCCC(=O)O`, the TGI is more than 100 µM.

For `COc1ccc(OC)c2sc(N3C(=O)/C(=C/Cc4ccco4)N=C3c3ccccc3)nc12`, the TGI was more than 100 µM.

In turn, `CC(C)c1ccccc1SC1CC(=O)CC(Sc2ccccc2C(C)C)C12O[C@H](c1ccccc1)[C@@H](c1ccccc1)O2` (stereo partly drawn) gave a TGI of more than 100 µM.

In turn, `CSC1=N[C@H](c2ccccc2)CS1` gave a TGI of more than 100 µM.

The test system of another experiment is MCF7 breast. As to the kind of experiment: NCI anticancer screen, dose series, 48 h.
In turn, `Nc1ccn(C2CC(O)C(COP(O)(=S)OC3CC(n4ccc(N)nc4=O)OC3CO)O2)c(=O)n1` (stereo not drawn) gave a TGI of more than 100 µM.

In turn, `COC(=O)N1C[C@@]2(C=CC3(CC2)OCCO3)c2ccccc21` returned a TGI of more than 100 µM.

`COc1ccccc1C1CC(=O)CC(c2ccccc2OC)C12C(=O)NC(=S)NC2=O` (stereo not drawn) came in with a TGI of more than 100 µM.

In turn, `COc1cc(S(=O)(=O)Nc2ccc(-c3csc(N4C(=O)CSC4c4cccs4)n3)cc2)ccc1Cl` (stereo not drawn) returned a TGI of 31.7 µM.

For the compound `NCCCCNCCCN1CC1`, the TGI is more than 100 µM.

In the case of `O=c1n(/N=C/c2ccccc2)c(=O)n2n1C1C=CC2CC1`, the TGI is more than 100 µM.

`COc1ccc(C2c3cc4c(cc3C(O)C3CCC(=O)N23)OCO4)cc1` (stereo not drawn): the TGI was more than 100 µM.

`COc1cc2c(cc1OC)-c1[nH]c3ccc(C#N)cc3c1CC(=O)N2` registered a TGI of more than 100 µM.

`NCCCNCCCNCCCN` yielded a TGI of more than 100 µM.

`Cn1nc(Cc2ccc(Cl)cc2)n(N)c1=O` came in with a TGI of more than 100 µM.

Regarding `COc1cc(Br)c(OC)c2c(OC)cc(C)cc12`, the TGI was more than 100 µM.

In the case of `CCOC(=O)/C(N=Nc1ccc(-n2c(C)nc3ccccc3c2=O)cc1)=C(/C)O`, the TGI was more than 100 µM.

Regarding `CCc1nnc(CC)n1NCCCC(=O)O`, the TGI was more than 100 µM.

With `COc1ccc(OC)c2sc(N3C(=O)/C(=C/Cc4ccco4)N=C3c3ccccc3)nc12`, the TGI was 35.7 µM.

For the compound `CC(C)c1ccccc1SC1CC(=O)CC(Sc2ccccc2C(C)C)C12O[C@H](c1ccccc1)[C@@H](c1ccccc1)O2` (stereo partly drawn), the TGI was more than 100 µM.

Compound `CSC1=N[C@H](c2ccccc2)CS1` returned a TGI of more than 100 µM.

A further experiment deals with CAKI-1 renal. The experiment is described as follows: NCI anticancer screen, dose series, 48 h.
On to `Nc1ccn(C2CC(O)C(COP(O)(=S)OC3CC(n4ccc(N)nc4=O)OC3CO)O2)c(=O)n1` (stereo not drawn), for which the TGI was more than 100 µM.

In the case of `COC(=O)N1C[C@@]2(C=CC3(CC2)OCCO3)c2ccccc21`, the TGI was more than 100 µM.

On to `COc1ccccc1C1CC(=O)CC(c2ccccc2OC)C12C(=O)NC(=S)NC2=O` (stereo not drawn), for which the TGI is more than 100 µM.

The compound `COc1cc(S(=O)(=O)Nc2ccc(-c3csc(N4C(=O)CSC4c4cccs4)n3)cc2)ccc1Cl` (stereo not drawn) had a TGI of more than 100 µM.

For `NCCCCNCCCN1CC1`, the TGI amounted to 0.382 µM.

As to `O=c1n(/N=C/c2ccccc2)c(=O)n2n1C1C=CC2CC1`, the TGI was more than 100 µM.

`COc1ccc(C2c3cc4c(cc3C(O)C3CCC(=O)N23)OCO4)cc1` (stereo not drawn) yielded a TGI of more than 100 µM.

As for `COc1cc2c(cc1OC)-c1[nH]c3ccc(C#N)cc3c1CC(=O)N2`, the TGI is more than 100 µM.

The compound `NCCCNCCCNCCCN` returned a TGI of more than 100 µM.

For the compound `Cn1nc(Cc2ccc(Cl)cc2)n(N)c1=O`, the TGI is more than 100 µM.

In turn, `CCOC(=O)/C(N=Nc1ccc(-n2c(C)nc3ccccc3c2=O)cc1)=C(/C)O` returned a TGI of more than 100 µM.

On to `COc1ccc(OC)c2sc(N3C(=O)/C(=C/Cc4ccco4)N=C3c3ccccc3)nc12`, for which the TGI was more than 100 µM.

In turn, `CC(C)c1ccccc1SC1CC(=O)CC(Sc2ccccc2C(C)C)C12O[C@H](c1ccccc1)[C@@H](c1ccccc1)O2` (stereo partly drawn) registered a TGI of 62.5 µM.

As to `CSC1=N[C@H](c2ccccc2)CS1`, the TGI is more than 100 µM.

A further experiment relates to UO-31 renal. The experiment is described as follows: NCI anticancer screen, dose series, 48 h.
Take `Nc1ccn(C2CC(O)C(COP(O)(=S)OC3CC(n4ccc(N)nc4=O)OC3CO)O2)c(=O)n1` (stereo not drawn): the TGI was more than 100 µM.

The compound `COC(=O)N1C[C@@]2(C=CC3(CC2)OCCO3)c2ccccc21` yielded a TGI of more than 100 µM.

Regarding `COc1ccccc1C1CC(=O)CC(c2ccccc2OC)C12C(=O)NC(=S)NC2=O` (stereo not drawn), the TGI is more than 100 µM.

Turning to `COc1cc(S(=O)(=O)Nc2ccc(-c3csc(N4C(=O)CSC4c4cccs4)n3)cc2)ccc1Cl` (stereo not drawn), the TGI was more than 100 µM.

Compound `NCCCCNCCCN1CC1` displayed a TGI of 12.8 µM.

For `O=c1n(/N=C/c2ccccc2)c(=O)n2n1C1C=CC2CC1`, the TGI was more than 100 µM.

The compound `COc1ccc(C2c3cc4c(cc3C(O)C3CCC(=O)N23)OCO4)cc1` (stereo not drawn) displayed a TGI of more than 100 µM.

`COc1cc2c(cc1OC)-c1[nH]c3ccc(C#N)cc3c1CC(=O)N2` returned a TGI of more than 22.6 µM.

In turn, `NCCCNCCCNCCCN` showed a TGI of more than 100 µM.

In turn, `Cn1nc(Cc2ccc(Cl)cc2)n(N)c1=O` yielded a TGI of more than 100 µM.

`COc1cc(Br)c(OC)c2c(OC)cc(C)cc12`: the TGI is more than 100 µM.

For the compound `CCOC(=O)/C(N=Nc1ccc(-n2c(C)nc3ccccc3c2=O)cc1)=C(/C)O`, the TGI is more than 100 µM.

The compound `CCc1nnc(CC)n1NCCCC(=O)O` had a TGI of more than 100 µM.

Regarding `COc1ccc(OC)c2sc(N3C(=O)/C(=C/Cc4ccco4)N=C3c3ccccc3)nc12`, the TGI is 80.8 µM.

`CSC1=N[C@H](c2ccccc2)CS1`: the TGI is more than 100 µM.

The subject of another experiment is TK-10 renal. The experiment is described as follows: NCI anticancer screen, dose series, 48 h.
For the compound `Nc1ccn(C2CC(O)C(COP(O)(=S)OC3CC(n4ccc(N)nc4=O)OC3CO)O2)c(=O)n1` (stereo not drawn), the TGI was more than 100 µM.

`COC(=O)N1C[C@@]2(C=CC3(CC2)OCCO3)c2ccccc21` returned a TGI of more than 100 µM.

The compound `COc1ccccc1C1CC(=O)CC(c2ccccc2OC)C12C(=O)NC(=S)NC2=O` (stereo not drawn) showed a TGI of more than 100 µM.

For the compound `NCCCCNCCCN1CC1`, the TGI is more than 100 µM.

The compound `O=c1n(/N=C/c2ccccc2)c(=O)n2n1C1C=CC2CC1` yielded a TGI of more than 100 µM.

For `COc1ccc(C2c3cc4c(cc3C(O)C3CCC(=O)N23)OCO4)cc1` (stereo not drawn), the TGI is more than 100 µM.

In turn, `COc1cc2c(cc1OC)-c1[nH]c3ccc(C#N)cc3c1CC(=O)N2` came in with a TGI of more than 100 µM.

Regarding `NCCCNCCCNCCCN`, the TGI was more than 100 µM.

Compound `Cn1nc(Cc2ccc(Cl)cc2)n(N)c1=O` had a TGI of more than 100 µM.

For the origin of these results see PubChem BioAssay (NCI).
